According to patent US20250304537A1 (Repare Therapeutics Inc., priority 2022, published 2025):
Where two headings read alike, the source gives them in different places.

How the values were obtained:
[1] = molecular target: recombinant human Myt1 (full length PKMYT1) (Homo sapiens (Human), UniProt Q99640); test: Recombinant human Myt1 kinase assay (ADP-Glo); assay type: biochemical; conditions: 10 μM ATP
Procedure, shortened: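 ADP-Glo luminescence measured ATP hydrolysis by recombinant full-length PKMYT1 (18 nM) after 60 min at 30 °C with 10 μM ATP. Compounds in 0.5% DMSO were added to the enzyme 15 min before ATP, at 22 °C, in HEPES/MgCl2/MnCl2 buffer. IC50 and percent maximal inhibition were derived.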

[2] = system: PKMYT1 (CDK1 pThr14) in FUOV1 cells; test: PKMYT1 cell-based activity assay, CDK1 pThr14 AlphaLISA in FUOV1 cells; conditions: read-out: FUOV-1 CDK1 pThr14 IC50
Procedure, shortened: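 IC50 was derived from AlphaLISA signal (excitation 680 nm, emission 615 nm) for phospho-Thr14 CDK1 in lysates. The detection antibodies were rabbit anti-pThr14 and mouse anti-total CDK1, each at 5 nM. FUOV1 ovarian cells were exposed to compound for 2 hours before lysis.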

Sequence of recombinant human Myt1 (full length PKMYT1) (Q99640 whole entry): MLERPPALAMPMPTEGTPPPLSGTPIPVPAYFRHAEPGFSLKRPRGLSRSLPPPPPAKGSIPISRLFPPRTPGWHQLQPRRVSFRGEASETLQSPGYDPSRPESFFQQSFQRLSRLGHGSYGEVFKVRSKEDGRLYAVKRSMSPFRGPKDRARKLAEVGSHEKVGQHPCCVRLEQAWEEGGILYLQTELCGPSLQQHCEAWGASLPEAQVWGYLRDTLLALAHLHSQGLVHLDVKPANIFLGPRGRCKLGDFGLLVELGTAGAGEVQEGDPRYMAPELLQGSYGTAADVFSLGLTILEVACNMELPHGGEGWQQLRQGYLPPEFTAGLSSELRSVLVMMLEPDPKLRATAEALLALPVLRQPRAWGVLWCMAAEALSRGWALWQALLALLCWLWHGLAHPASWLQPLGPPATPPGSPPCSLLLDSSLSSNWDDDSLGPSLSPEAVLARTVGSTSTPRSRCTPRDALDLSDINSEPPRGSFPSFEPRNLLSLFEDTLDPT

Compound | IC50 [1] [nM] | IC50 ([2]; 2 h, 2 hours with compound) [nM] | IC50 ([2]; 2 h, 2 h compound incubation) [nM] | IC50 ([2]; 2 h, 2 h incubation) [nM] | IC50 ([2]; 2 h incubation) [nM]
Cc1ccc(O)c(C)c1-c1cc(-c2cncnc2)nc(C(N)=O)c1N [Compound 71] | 9 | – | – | 298 | –
Cc1ccc2[nH]ncc2c1-c1cc(-c2ccnc(OCc3ncccn3)n2)nc(C(N)=O)c1N [Compound 251] | 3 | – | – | – | 46
COCC(Oc1nccc(-c2cc(-c3c(C)ccc4[nH]ncc34)c(N)c(C(N)=O)n2)n1)c1ccccc1 (centres unmarked) [Compound 206] | 8 | – | – | 554 | –
Cc1ccc(O)c(C)c1-c1cc(-c2cncs2)nc(C(N)=O)c1N [Compound 90] | 3 | – | – | – | 58
Cc1ccc(O)c(C)c1-c1cc(-c2ccncn2)nc(C(N)=O)c1N [Compound 79] | 8 | – | – | – | 90
CCC(COC)Oc1nccc(-c2cc(-c3c(C)ccc4[nH]ncc34)c(N)c(C(N)=O)n2)n1 (centres unmarked) [Compound 221] | 7 | – | – | 270 | –
Cc1ccc2[nH]ncc2c1-c1cc(-c2cccc(N[C@H]3C[C@H](O)C3)n2)nc(C(N)=O)c1N [Compound 322] | 10 | – | – | 164 | –
Cc1ccc2[nH]ncc2c1-c1cc(-c2cccc(OCc3ccccn3)n2)nc(C(N)=O)c1N [Compound 228] | 6 | – | – | 387 | –
Cc1ccc2[nH]ncc2c1-c1cc(C(N)=O)nc(-c2cccnc2Nc2nc(F)ccc2F)n1 [Compound 499, 2-(2-((3,6-difluoropyridin-2-yl)amino)pyridin-3-yl)-6-(5-methyl-1H-indazol-4-yl)pyrimidine-4-carboxamide] | 4 | – | 209 | – | –
Cc1ccc2[nH]ncc2c1-c1cc(-c2ccnc(OC[C@H](N)c3ccccc3)n2)nc(C(N)=O)c1N [Compound 342] | 3 | – | – | 6 | –
COCCOc1nccc(-c2cc(-c3c(C)ccc4[nH]ncc34)c(N)c(C(N)=O)n2)n1 [Compound 166] | 3 | – | – | 109 | –
Cc1ccc(O)c(C)c1-c1cc(-c2nccs2)nc(C(N)=O)c1N [Compound 13, 3-amino-4-(3-hydroxy-2,6-dimethylphenyl)-6-(thiazol-2-yl)picolinamide] | < 3.5 | – | – | 64 | –
Cc1ccc2[nH]ncc2c1-c1cc(-c2cccc(OC[C@H](N)c3ccccc3)n2)nc(C(N)=O)c1N [Compound 276] | 2 | – | – | – | 11
Cc1ccc(O)c(C)c1-c1cc(-c2ncccn2)cc(C(N)=O)c1N [Compound 78] | 9 | – | – | 326 | –
Cc1ccc(O)c(C)c1-c1cc(-c2ccncn2)nc(C(N)=O)c1N [Compound 89] | 3 | – | – | – | 16
Cc1ccc(O)c(C)c1-c1cc(-c2ccnnc2)nc(C(N)=O)c1N [Compound 52] | 8 | – | – | 45 | –
NC(=O)c1nc(-c2ccccc2)nc(-c2cc(F)cc3[nH]ncc23)c1N [Compound 122] | 137 | – | – | 820 | –
Cc1ccc2[nH]ncc2c1-c1cc(-c2cc(Cl)ccn2)nc(C(N)=O)c1N [Compound 257] | 12 | – | – | 1170 | –
Cc1ccc(O)c(C)c1-c1cc(-c2nccc3ccccc23)nc(C(N)=O)c1N [Compound 48] | 55 | – | – | 7740 | –
Cc1ccc(O)c(C)c1-c1cc(C(=O)Nc2cccnc2)nc(C(N)=O)c1N [Compound 188, 5-amino-4-(3-hydroxy-2,6-dimethylphenyl)-N2-(pyridin-3-yl)pyridine-2,6-dicarboxamide] | 8 | – | – | 266 | –
Cc1ccc(O)c(C)c1-c1cc(-c2nccs2)cc(C(N)=O)c1N [Compound 81] | 5 | – | – | 112 | –

Further lines, results first:

IC50 [1] [nM] | IC50 ([2]; 2 h, 2 hours with compound) [nM] | IC50 ([2]; 2 h, 2 h compound incubation) [nM] | IC50 ([2]; 2 h, 2 h incubation) [nM] | IC50 ([2]; 2 h incubation) [nM] | Compound
8 | 62 | – | – | – | Cc1ccc2[nH]ncc2c1-c1nc(-c2cccnc2NS(C)(=O)=O)nc(C(N)=O)c1N [Compound 804, 5-amino-6-(5-methyl-1H-indazol-4-yl)-2-(2-(methylsulfonamido)pyridin-3-yl)pyrimidine-4-carboxamide]
16 | – | 515 | – | – | Cc1ccc2[nH]ncc2c1-c1nc(-c2ccc(F)cc2Nc2cc(C3CC3)ncn2)nc(C(N)=O)c1N [Compound 615]
7 | – | 22 | – | – | Cc1ccc2[nH]ncc2c1-c1nc(-c2ccccc2NC(=O)C2(C)CCC2)nc(C(N)=O)c1N [Compound 416]
23 | – | – | 883 | – | Cc1ccc(-c2nc(C(N)=O)c(N)c(-c3c(C)ccc4[nH]ncc34)n2)s1 [Compound 110]
7 | – | – | 20 | – | Cc1ccc2[nH]ncc2c1-c1cc(-c2cccc(OCC3(N)CC3)n2)nc(C(N)=O)c1N [Compound 353]
3 | 22 | – | – | – | Cc1ccc2[nH]ncc2c1-c1nc(-c2cc(F)ncc2NC2CCOCC2)nc(C(N)=O)c1N [Compound 843]
2 | – | 14 | – | – | CC(C)(C)C(=O)Nc1ccccc1-c1nc(C(N)=O)c(N)c(-c2c(Cl)ccc3[nH]ncc23)n1 [Compound 403]
53 | – | 641 | – | – | CCOc1ccccc1-c1nc(C(N)=O)c(N)c(-c2c(C)ccc3[nH]ncc23)n1 [Compound 794]
11 | – | – | 13 | – | Cc1ccc2[nH]ncc2c1-c1nc(-c2ccccc2NC(C)C(F)(F)F)nc(C(N)=O)c1N (centres unmarked) [Compound 381, 5-amino-6-(5-methyl-1H-indazol-4-yl)-2-(2-((1,1,1-trifluoropropan-2-yl)amino)phenyl)pyrimidine-4-carboxamide]
3 | – | 8 | – | – | Cc1ccc2[nH]ncc2c1-c1nc(-c2ccccc2NC(=O)C(C)(C)F)nc(C(N)=O)c1N [Compound 434]
26 | – | 447 | – | – | Cc1ccc2[nH]ncc2c1-c1nc(-c2ccc(C(F)(F)F)cc2NC(=O)C2(C)CC2)nc(C(N)=O)c1N [Compound 454, 5-amino-6-(5-methyl-1H-indazol-4-yl)-2-(2-(1-methylcyclopropane-1-carboxamido)-4-(trifluoromethyl)phenyl)pyrimidine-4-carboxamide]
6 | – | 80 | – | – | Cc1ccc2[nH]ncc2c1-c1nc(-c2ccccc2NC(=O)C2(C3CC3)CC2)nc(C(N)=O)c1N [Compound 478]
3 | – | 41 | – | – | Cc1nccc(Nc2cc(C#N)ccc2-c2nc(C(N)=O)c(N)c(-c3c(C)ccc4[nH]ncc34)n2)n1 [Compound 766]
16 | – | 794 | – | – | Cc1ccc2[nH]ncc2c1-c1nc(-c2cccnc2NCC2CCCCO2)nc(C(N)=O)c1N (centres unmarked) [Compound 604]
8 | – | 121 | – | – | Cc1ccc2[nH]ncc2c1-c1nc(-c2ccccc2Nc2ccc(F)cn2)nc(C(N)=O)c1N [Compound 450]
< 3 | > 10000 | – | – | – | Cc1ccc2[nH]ncc2c1-c1nc(-c2cccnc2NC(=O)C(C)(C)C)c(F)c(C(N)=O)c1N [Compound 905, 5-amino-3-fluoro-6-(5-methyl-1H-indazol-4-yl)-2′-pivalamido-[2,3′-bipyridine]-4-carboxamide]

IC50 [1] [nM] | IC50 ([2]; 2 h, 2 hours with compound) [nM] | IC50 ([2]; 2 h, 2 h compound incubation) [nM] | IC50 ([2]; 2 h, 2 h incubation) [nM] | IC50 ([2]; 2 h incubation) [nM] | Compound
3 | – | 3 | – | – | Cc1ccc2[nH]ncc2c1-c1nc(-c2cccnc2Nc2ncccc2F)nc(C(N)=O)c1N [Compound 621]
2 | – | 2 | – | – | Cc1ccc2[nH]ncc2c1-c1nc(-c2ccncc2NC(=O)C(C)(C)C)nc(C(N)=O)c1N [Compound 483, 5-amino-6-(5-methyl-1H-indazol-4-yl)-2-(3-pivalamidopyridin-4-yl)pyrimidine-4-carboxamide]
10100 | – | > 10000 | – | – | Cc1ccc2[nH]ncc2c1-c1nc(-c2ccccc2S(=O)(=O)NC(C)(C)C)nc(C(N)=O)c1N [Compound 792]
8 | – | 278 | – | – | Cc1ccc2[nH]ncc2c1-c1nc(-c2ccccc2NC(=O)C2(C)CC2(Cl)Cl)nc(C(N)=O)c1N (centres unmarked) [Compound 463]
4 | – | 179 | – | – | Cc1ccc2[nH]ncc2c1-c1nc(-c2cccnc2Nc2cccnc2C)nc(C(N)=O)c1N [Compound 623]
5 | – | 13 | – | – | Cc1ccc(-c2nc(C(N)=O)c(N)c(-c3c(C)ccc4[nH]ncc34)n2)c(NC(=O)C2(C)CC2)c1 [Compound 433]
139 | – | > 10000 | – | – | Cc1ccc2[nH]ncc2c1-c1nc(-c2ccccc2NC(=O)C(C)c2ccccc2)nc(C(N)=O)c1N (centres unmarked) [Compound 425]
4 | – | 36 | – | – | Cc1ccc2[nH]ncc2c1-c1nc(-c2ccccc2N[C@@H](C)C(F)(F)F)nc(C(N)=O)c1N [Compound 429]
< 3 | 209 | – | – | – | Cc1ccc2[nH]ncc2c1-c1nc(-c2cccnc2NC2CC(OC(F)F)C2)nc(C(N)=O)c1N (centres unmarked) [Compound 893]
5 | – | 233 | – | – | Cc1ccc2[nH]ncc2c1-c1nc(-c2cnccc2NC(=O)OC(C)(C)C)nc(C(N)=O)c1N [Compound 465]
3 | – | 26 | – | – | Cc1ccc2[nH]ncc2c1-c1nc(-c2ccccc2NC(=O)C2(C)CC2(F)F)nc(C(N)=O)c1N (centres unmarked) [Compound 443]
6 | – | – | 288 | – | Cc1ccc2[nH]ncc2c1-c1nc(-c2cc(F)cc3c2NC(=O)C3)nc(C(N)=O)c1N [Compound 393]
8 | – | – | 652 | – | Cc1ccc2[nH]ncc2c1-c1nc(-c2cccc(OCC#N)c2)nc(C(N)=O)c1N [Compound 288]
10 | – | 885 | – | – | Cc1ccc2[nH]ncc2c1-c1nc(-c2cccnc2Nc2cccc(F)c2)nc(C(N)=O)c1N [Compound 600]
7 | – | 9 | – | – | Cc1ccc2[nH]ncc2c1-c1nc(-c2ccccc2NC(=O)C2(C)COC2)nc(C(N)=O)c1N [Compound 408]
